These results are taken from patent US20230218710A1, “METHOD OF TREATING CORONAVIRUS INFECTIONS” (priority 2020, published 2023).

Square brackets hold non-standard residues; d marks the D form. Peptide text beside a SMILES is read from it.

A short description of this series: in vitro. As to conditions: human, pooled human plasma.
Procedure: The metabolic stability of the peptides can be assessed in vitro by incubation in plasma and determination of the amount of peptide remaining over time. Peptides (50 μM) were incubated in pooled plasma from mice, monkeys, and humans at 37° C. Samples were removed at intervals up to 3 hours and immediately analyzed for the concentration of intact peptide by LC/MS/MS. The percent of peptide remaining in plasma at each time point was calculated relative to the initial peak area.
For `CSCC[C@H](NC(=O)CNC(=O)[C@H](CCSC)NC(=O)[C@H](CCSC)NC(=O)[C@@H](N)CCCNC(=N)N)C(=O)N[C@H](C(=O)N[C@@H](Cc1ccccc1)C(=O)N[C@@H](CCC(N)=O)C(=O)O)C(C)C` [compound 51] (H-RMMGMVFQ-OH), the fraction remaining at 0.5 h, 50 μM was determined as 100%.

For the compound `CSCC[C@H](NC(=O)CNC(=O)[C@H](CCSC)NC(=O)[C@H](CCSC)NC(=O)[C@H](CCCNC(=N)N)NC(=O)[C@@H](N)CCCNC(=N)N)C(=O)O` [compound 55] (H-RRMMGM-OH), the amount remaining at 0.5 h, 50 μM was 100%.

As to `CSCC[C@H](NC(=O)CNC(=O)[C@H](CCSC)NC(=O)[C@H](CCSC)NC(=O)[C@H](CCCNC(=N)N)NC(=O)[C@@H](N)CCCNC(=N)N)C(=O)N[C@H](C(=O)N[C@@H](Cc1ccccc1)C(=O)N[C@@H](CCC(N)=O)C(=O)O)C(C)C` [compound 58] (H-RRMMGMVFQ-OH), the share remaining at 0.5 h, 50 μM is 69.5%.

`CSCC[C@H](NC(=O)CNC(=O)[C@H](CCSC)NC(=O)[C@H](CCSC)NC(=O)[C@H](CCCNC(=N)N)NC(=O)[C@@H](N)CCCNC(=N)N)C(=O)N[C@H](C(=O)N[C@@H](Cc1ccccc1)C(=O)N[C@@H](CCC(N)=O)C(=O)N[C@@H](CO)C(=O)N[C@@H](CC(C)C)C(=O)O)C(C)C` [compound 60] (H-RRMMGMVFQSL-OH) had an amount remaining at 0.5 h, 50 μM of 95%.

Take `CSCC[C@H](NC(=O)CNC(=O)[C@H](CCSC)NC(=O)[C@@H](N)CCSC)C(=O)N[C@H](C(=O)N[C@@H](Cc1ccccc1)C(=O)N[C@@H](CCC(N)=O)C(=O)O)C(C)C` [compound 46] (H-MMGMVFQ-OH): the fraction remaining at 0.5 h, 50 μM came out at 100%.

On to `CSCC[C@H](NC(=O)CNC(=O)[C@H](CCSC)NC(=O)[C@H](CCSC)NC(=O)[C@H](CCCNC(=N)N)NC(=O)[C@@H](N)CCCNC(=N)N)C(=O)N[C@H](C(=O)N[C@@H](Cc1ccccc1)C(=O)O)C(C)C` [compound 57] (H-RRMMGMVF-OH), for which the amount remaining at 0.5 h, 50 μM came to 91.9%.

Turning to `CSCC[C@H](NC(=O)CNC(=O)[C@H](CCSC)NC(=O)[C@@H](N)CCSC)C(=O)N[C@H](C(=O)N[C@@H](Cc1ccccc1)C(=O)N[C@@H](CCC(N)=O)C(=O)N[C@@H](CO)C(=O)N[C@@H](CC(C)C)C(=O)O)C(C)C` [compound 48] (H-MMGMVFQSL-OH), the fraction remaining at 0.5 h, 50 μM was determined as 92%.

`CSCC[C@H](NC(=O)CNC(=O)[C@H](CCSC)NC(=O)[C@H](CCSC)NC(=O)[C@@H](N)CCCNC(=N)N)C(=O)N[C@H](C(=O)N[C@@H](Cc1ccccc1)C(=O)N[C@@H](CCC(N)=O)C(=O)N[C@@H](CO)C(=O)N[C@@H](CC(C)C)C(=O)O)C(C)C` [compound 53] (H-RMMGMVFQSL-OH): the share remaining at 0.5 h, 50 μM stood at 85.8%.

In turn, `CSCC[C@H](NC(=O)CNC(=O)[C@H](CCSC)NC(=O)[C@H](CCSC)NC(=O)[C@H](CCCNC(=N)N)NC(=O)[C@@H](N)CCCNC(=N)N)C(=O)N[C@H](C(=O)O)C(C)C` [compound 56] (H-RRMMGMV-OH) came in with a share remaining at 0.5 h, 50 μM of 92.1%.

The compound `CSCC[C@H](NC(=O)CNC(=O)[C@H](CCSC)NC(=O)[C@H](CCSC)NC(=O)[C@@H](N)CCCNC(=N)N)C(=O)N[C@H](C(=O)N[C@@H](Cc1ccccc1)C(=O)N[C@@H](CCC(N)=O)C(=O)N[C@@H](CO)C(=O)O)C(C)C` [compound 52] (H-RMMGMVFQS-OH) had an amount remaining at 0.5 h, 50 μM of 97.5%.

Compound `CSCC[C@H](NC(=O)CNC(=O)[C@H](CCSC)NC(=O)[C@H](CCSC)NC(=O)[C@H](CCCNC(=N)N)NC(=O)[C@H](CCCNC(=N)N)NC(=O)[C@@H](N)CCSC)C(=O)N[C@H](C(=O)N[C@@H](Cc1ccccc1)C(=O)N[C@@H](CCC(N)=O)C(=O)N[C@@H](CS)C(=O)N[C@@H](CC(C)C)C(=O)N[C@@H](CS)C(=O)NCC(=O)N[C@@H](CC(C)C)C(=O)O)C(C)C` [compound 7] yielded a share remaining at 0.5 h, 50 μM of 52.4%.

As for `CSCC[C@H](NC(=O)CNC(=O)[C@H](CCSC)NC(=O)[C@H](CCSC)NC(=O)[C@H](CCCNC(=N)N)NC(=O)[C@@H](N)CCCNC(=N)N)C(=O)N[C@H](C(=O)N[C@@H](Cc1ccccc1)C(=O)N[C@@H](CCC(N)=O)C(=O)N[C@@H](CO)C(=O)N[C@@H](CC(C)C)C(=O)N[C@@H](CS)C(=O)NCC(=O)N[C@H](C)C(N)=O)C(C)C` [compound 62], the fraction remaining at 0.5 h, 50 μM is 30.3%.

`CC[C@H](C)[C@H](NC(=O)[C@H](CCCNC(=N)N)NC(=O)[C@@H](N)CCCNC(=N)N)C(=O)N[C@H](C(=O)N[C@H](C)C(=O)N[C@H](C(=O)N[C@H](C(=O)N[C@@H](Cc1ccccc1)C(=O)N[C@@H](CCC(N)=O)C(=O)N[C@@H](CS)C(=O)N[C@@H](CC(C)C)C(=O)N[C@@H](CS)C(=O)N[C@H](C)C(=O)N[C@@H](CC(C)C)C(=O)O)C(C)C)[C@@H](C)CC)[C@@H](C)CC` [compound 9] (H-RRII[dA]IVFQCLC[dA]L-OH) registered a fraction remaining at 0.5 h, 50 μM of 92.5%.

The compound `CSCC[C@H](NC(=O)CNC(=O)[C@H](CCSC)NC(=O)[C@@H](N)CCSC)C(=O)N[C@H](C(=O)N[C@@H](Cc1ccccc1)C(=O)N[C@@H](CCC(N)=O)C(=O)N[C@@H](CO)C(=O)O)C(C)C` [compound 47] (H-MMGMVFQS-OH) returned a share remaining at 0.5 h, 50 μM of 86.1%.

`CSCC[C@H](NC(=O)CNC(=O)[C@H](CCSC)NC(=O)[C@H](CCSC)NC(=O)[C@H](CCCNC(=N)N)NC(=O)[C@@H](N)CCCNC(=N)N)C(=O)N[C@H](C(=O)N[C@@H](Cc1ccccc1)C(=O)N[C@@H](CCC(N)=O)C(=O)N[C@@H](CO)C(=O)O)C(C)C` [compound 59] (H-RRMMGMVFQS-OH) returned an amount remaining at 0.5 h, 50 μM of 62.9%.

With `CSCC[C@H](NC(=O)CNC(=O)[C@H](CCSC)NC(=O)[C@H](CCSC)NC(=O)[C@@H](N)CCCNC(=N)N)C(=O)N[C@H](C(=O)N[C@@H](Cc1ccccc1)C(=O)O)C(C)C` [compound 50] (H-RMMGMVF-OH), the fraction remaining at 0.5 h, 50 μM came to 87.7%.

`CSCC[C@H](NC(=O)CNC(=O)[C@H](CCSC)NC(=O)[C@@H](N)CCSC)C(=O)N[C@H](C(=O)N[C@@H](Cc1ccccc1)C(=O)O)C(C)C` [compound 45] (H-MMGMVF-OH) returned an amount remaining at 0.5 h, 50 μM of 90.8%.
